Values quoted from earlier work in patent publication US20180318338A1, “METHODS AND COMPOSITIONS FOR THE PREVENTION OF SUICIDE, HOMICIDE AND SELF-HARMING BEHAVIORS” (THE MCLEAN HOSPITAL CORPORATION, priority 2015, published 2018).

Settings: in vivo

[Xe] [xenon]
blood level of xenon: 100 to 200 nL xenon/mL blood
